Experimental data taken from ChEMBL document CHEMBL3352420, “Discovery of 2-pyridylureas as glucokinase activators” (J Med Chem, 2014).

Experiments:
Hexokinase-4 [1] = target: T1, Hexokinase-4 (Homo sapiens, UniProt P35557); test: Activation of purified human glucokinase isoform 3 (13 to 466 aa) using 5 mM glucose by spectrophotometry in presence of NAD+ and glucose 6-phosphate dehydrogenase
T1 sequence (P35557 whole entry): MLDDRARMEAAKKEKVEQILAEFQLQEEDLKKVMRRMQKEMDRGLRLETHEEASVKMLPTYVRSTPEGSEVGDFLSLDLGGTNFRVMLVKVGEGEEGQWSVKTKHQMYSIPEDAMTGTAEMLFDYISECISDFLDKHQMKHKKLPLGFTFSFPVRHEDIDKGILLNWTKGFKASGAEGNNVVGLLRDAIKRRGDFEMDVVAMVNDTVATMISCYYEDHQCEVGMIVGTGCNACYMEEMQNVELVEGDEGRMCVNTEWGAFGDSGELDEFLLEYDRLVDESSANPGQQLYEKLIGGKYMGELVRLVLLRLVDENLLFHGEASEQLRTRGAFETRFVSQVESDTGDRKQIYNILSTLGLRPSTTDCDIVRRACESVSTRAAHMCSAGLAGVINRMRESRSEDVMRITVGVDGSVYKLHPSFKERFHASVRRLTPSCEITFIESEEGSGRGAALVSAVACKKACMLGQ

Hexokinase-4 [2] = target: T1, Hexokinase-4; test: Activation of purified human glucokinase isoform 3 (13 to 466 aa) using 5 mM glucose by spectrophotometry in presence of NAD+ and glucose 6-phosphate dehydrogenase in presence of 4% HSA
[3] = Extraction ratio in human liver microsomes at 1 uM up to 20 mins by LC-MS/MS analysis; format: ADME; details: read-out: ERH
[4] = Extraction ratio in mouse liver microsomes at 1 uM up to 20 mins by LC-MS/MS analysis; format: ADME; details: read-out: ERH

| SMILES | EC50 (Hexokinase-4 [1]) [nM] | EC50 (Hexokinase-4 [2]; read-out: EC50) [nM] | EC50 (Hexokinase-4 [2]) | hepatic extraction ratio at 20 min, 1 µM [3] | hepatic extraction ratio at 20 min, 1 µM [4] |
| --- | --- | --- | --- | --- | --- |
| CCc1ncccc1Oc1cc(Sc2ccccn2)cnc1NC=O | 13200 | 41400 |  |  |  |
| CCc1ncccc1Oc1cc(Sc2ccccn2)cnc1NC(C)=O | > 50000 |  | Not Active |  |  |
| CCOC(=O)Nc1ncc(Sc2ccccn2)cc1Oc1cccnc1CC | > 50000 |  | Not Active |  |  |
| CCNC(=O)Nc1ncc(Sc2ccccn2)cc1Oc1cccnc1CC | 203 | 547 |  |  |  |
| CCc1ncccc1Oc1cc(Sc2ccccn2)cnc1NC(=O)NC | 88 | 231 |  | 0.75 | 0.85 |
| CCc1ncccc1Oc1cc(Sc2ccccn2)cnc1NC(N)=O | 1730 | 4480 |  |  |  |
| CCc1ncccc1Oc1cc(Sc2ccccn2)cnc1NC(=O)NC(C)C | > 50000 |  | Not Active |  |  |
| CCc1ncccc1Oc1cc(Sc2ccccn2)cnc1NC(=O)NCCO | 2120 | 2840 |  |  |  |
| CCc1ncccc1Oc1cc(Sc2ccccn2)cnc1NC(=O)NCc1ccccn1 | 1620 | 3990 |  |  |  |
| CCc1ncccc1Oc1cc(Sc2ccccn2)cnc1NC(=O)NCc1cccnc1 | 758 | 1970 |  |  |  |
| CCc1ncccc1Oc1cc(Sc2ccccn2)cnc1NC(=O)NCc1ccncc1 | 952 | 1160 |  |  |  |
| CCc1ncccc1Oc1cc(Sc2ccccn2)cnc1NC(=O)NCc1ccccc1O | 393 | 5850 |  |  |  |
| CCc1ncccc1Oc1cc(Sc2ccccn2)cnc1NC(=O)NCc1cccc(O)c1 | 276 | 2830 |  |  |  |
